The target of test [1] is T1, ALDH2 (Homo sapiens, UniProt P05091).
T1 sequence (P05091 18-517): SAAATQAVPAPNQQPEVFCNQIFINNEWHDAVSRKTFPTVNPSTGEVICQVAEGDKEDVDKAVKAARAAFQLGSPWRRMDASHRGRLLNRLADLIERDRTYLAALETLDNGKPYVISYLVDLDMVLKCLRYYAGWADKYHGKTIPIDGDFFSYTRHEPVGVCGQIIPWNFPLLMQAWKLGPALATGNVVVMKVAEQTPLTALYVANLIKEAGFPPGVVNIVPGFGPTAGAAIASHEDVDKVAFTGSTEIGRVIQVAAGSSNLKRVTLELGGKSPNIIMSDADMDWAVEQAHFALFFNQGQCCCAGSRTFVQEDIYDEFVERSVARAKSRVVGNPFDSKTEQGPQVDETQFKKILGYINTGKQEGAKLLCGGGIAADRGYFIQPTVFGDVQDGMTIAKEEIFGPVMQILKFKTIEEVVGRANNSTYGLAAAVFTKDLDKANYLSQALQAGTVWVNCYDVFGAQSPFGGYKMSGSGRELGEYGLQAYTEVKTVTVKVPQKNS
The test can be described thus: QuantiChrom ALDH inhibitor screening kit, diaphorase/MTT-coupled colorimetric assay ([…] nm), recombinant enzyme. The class given is biochemical. (Tetrazolium assays rely on reduction of a dye to a coloured formazan, in cell work by metabolically active cells.)

Test [2] has as its target T1, ALDH2. The test can be described thus: QuantiChrom ALDH inhibitor screening kit, % inhibition at […], recombinant enzyme. In kind it is biochemical.

SMILES strings stand for the structures.

Consider `O=c1c(O)c(-c2ccc(O)c(O)c2)oc2cc(O)cc(O)c12` [compound 2, quercetin], for which the 50% inhibitory concentration (IC50) on ALDH2 [1] was 26.5 µM.
Consider `O=C(O)[C@H]1O[C@@H](Oc2c(-c3ccc(O)c(O)c3)oc3cc(O)cc(O)c3c2=O)[C@H](O)[C@@H](O)[C@@H]1O` [compound 9, quercetin-3-glucuronide], for which, on ALDH2 [1], the IC50 worked out at 9.62 µM.
As for `COc1ccc(-c2oc3cc(O)cc(O)c3c(=O)c2O)cc1O` [compound 8, tamarixetin], the inhibition at 20 µM at ALDH2 [2] was determined as 25.8 ± 1.31%.

Broadly, the IC50 is the midpoint of a concentration-inhibition curve. One may read the inhibition as the relative decrease from the control value, in per cent.

For the origin of these results see paper PMC10662156 (Scientific Reports, 2023).
